According to patent publication US9732322B2, “Compositions for mesoderm derived ISL1+ multipotent cells (IMPs), epicardial progenitor cells (EPCs) and multipotent C56C cells (C56Cs) and methods of producing and using same” (UNIVERSITY OF GEORGIA RESEARCH FOUNDATION, INC., priority 2008, dated 2017):
Each block holds one molecule with its values, some of them ahead of it.

Columns and labels:
Isl1+ IMP (Spl-m) cells = assay: Stage 2 differentiation of Isl1+ IMPs/Spl-m to Wt1+ epicardial progenitor (PE-like) cells; format: cell-based, human; settings: for Erk activation in Isl1+ Spl-m: immunoblot, phospho-Erk1,2
Protocol: hESC/hFib2-iPS4 hiPSCs grown in StemPro defined media/defined media were differentiated into IMPs (as described above and elsewhere). At day 4, IMP cell stage, the defined media was supplemented with BMP4 (50 ng/ml, range about 2-100 ng/ml, R&D Systems), Wnt3a (25 ng/ml, range about 1-100+ng/ml, R&D Systems) and all-trans retinoic acid (4 μM, range about 0.25-25 μM Sigma), media changed every 2 (1-4 days) days, for about 10-16 days (about 7-25 days) (FIG. 39). The expression of Wt-1, Tbx18, Raldh2 and Tcf21 (epicardin) were confirmed by Q-PCR (FIGS. 40, 42) and Wt-1 by immunofluorescence (FIG. 41). This method typically gives cultures that are >80% positive for Wt1.
(§1) WA01, WA07, WA09, BG01 and BG02 hESCs and Fib-iPS4 hIPSCs^28 were adapted from mouse embryo fibroblast feeder-based culture conditions to feeder-free growth in chemically defined media (CDM) using single cell suspensions^50. Briefly, CDM is composed of DMEM/F12 (Mediatech), 2% probumin (Bovine Serum Albumin fraction V) biotech grade (Millipore), 1× nonessential amino acids, 50 U/mL penicillin, 50 μg/mL streptomycin, 1× trace elements A, B, C (all from Mediatech), 10 μg/mL transferrin, 0.1 mM […] (Gibco), 50 μg/mL ascorbic acid (Sigma), 8 ng/mL bFGF (Invitrogen), 200 ng/mL LR-IGF (Sigma), 10 ng/mL Activin A (R and D Systems) and 10 ng/mL […] (Peprotech). Cells were passaged every 4-5 d using Accutase (Innovative Cell Technologies) to form a single cell suspension and then plated onto plates coated with 1:200 Geltrex (Invitrogen) at a cell density of 7.5×10^4 cells/cm^2 at 37° C. in 5% CO2. Media was changed every 24 h. To differentiate hESC in Stage 1 (FIG. 62), cells were plated at a density of 5.1×10^4 cells/cm^2 into CDM containing 25 ng/mL rmWnt3a and 100 ng/mL rhBMP4 (R&D Systems). Cells were cultured at 37° C. in 5% CO2 and media changed every 24 h for 4-6 d. CDM for Stage 2 of differentiation was supplemented with 25 ng/mL rmWnt3a, 50 ng/mL rhBMP4 with either 100 ng/ml Fgf2 or 4 μM all-trans retinoic acid (Sigma), changing media every 48 h for 10-16 d. For Stage 3 differentiation, Stage 2 cells were passaged at day 16 into CDM without Activin A, supplemented with 10 ng/mL rhVEGF-A165 (R&D Systems). All bright field images were acquired on a Leica DMIL microscope.
Progenitor cells of the coronary vasculature are believed to reside in the PE and after forming the epicardium, seed the myocardium for future vessel formation. Many unanswered questions remain as to the characteristics of these progenitor cells but clearly, a better understanding of PE development will provide significant insight into this question. Lineage tracing studies in vivo indicate that PE and epicardium forms from an Isl1^+ Nkx2.5^+ progenitor^6, 18, 29. […]

CXCR4 receptor = biological target: T1, CXCR4 receptor (Homo sapiens, UniProt P61073); assay: Boyden chamber migration assay of C56C cells; format: cell-based
T1 construct: endogenous in cells; host or cells: C56C cells (CXCR4+ CD56+), differentiated from MMCs derived from human pluripotent stem cells
Protocol: FIG. 61. To investigate the mechanisms by which C56Cs migrate towards ischemic/damaged tissue we assayed these cells in a Boyden chamber assay. 300,000 C56C cells were seeded in the upper chamber of a Boyden chamber.
To investigate the mechanisms by which C56Cs migrate towards ischemic/damaged tissue we assayed these cells in a Boyden chamber assay. 300,000 C56C cells were seeded in the upper chamber of a Boyden chamber.

[1] = test system: hESC-derived Wt1+ PE cells (EPCs); assay: Stage 3 differentiation of Wt1+ EPC/PE cells to smooth muscle and endothelial cells, immunostaining; format: cell-based, human; settings: VEGF 10 ng/ml, 10 days
Protocol: WA01, WA07, WA09, BG01 and BG02 hESCs and Fib-iPS4 hIPSCs^28 were adapted from mouse embryo fibroblast feeder-based culture conditions to feeder-free growth in chemically defined media (CDM) using single cell suspensions^50. Briefly, CDM is composed of DMEM/F12 (Mediatech), 2% probumin (Bovine Serum Albumin fraction V) biotech grade (Millipore), 1× nonessential amino acids, 50 U/mL penicillin, 50 μg/mL streptomycin, 1× trace elements A, B, C (all from Mediatech), 10 μg/mL transferrin, 0.1 mM 3-mercaptoethanol (Gibco), 50 μg/mL ascorbic acid (Sigma), 8 ng/mL bFGF (Invitrogen), 200 ng/mL LR-IGF (Sigma), 10 ng/mL Activin A (R and D Systems) and 10 ng/mL Heregulin 13 (Peprotech). Cells were passaged every 4-5 d using Accutase (Innovative Cell Technologies) to form a single cell suspension and then plated onto plates coated with 1:200 Geltrex (Invitrogen) at a cell density of 7.5×10^4 cells/cm^2 at 37° C. in 5% CO2. Media was changed every 24 h. To differentiate hESC in Stage 1 (FIG. 62), cells were plated at a density of 5.1×10^4 cells/cm^2 into CDM containing 25 ng/mL rmWnt3a and 100 ng/mL rhBMP4 (R&D Systems). Cells were cultured at 37° C. in 5% CO2 and media changed every 24 h for 4-6 d. CDM for Stage 2 of differentiation was supplemented with 25 ng/mL rmWnt3a, 50 ng/mL rhBMP4 with either 100 ng/ml Fgf2 or 4 μM all-trans retinoic acid (Sigma), changing media every 48 h for 10-16 d. […]

WA09 hESCs = assay: Stage 1 differentiation of WA09 hESCs to Isl1+ splanchnic mesoderm; Q-PCR, immunostaining, flow cytometry; format: cell-based, human; settings: for differentiation / gene expression changes with single factor alone: data not shown
Protocol: as §1, with “To differentiate hESC in Stage 1 (FIG. 62), cells were plated at a density of 5.1×10^4 cells/cm^2 into CDM containing 25 ng/mL rmWnt3a and 100 ng/mL rhBMP4 (R&D Systems).” left out
Cells were collected as single cell suspensions following harvesting with Accutase and then analyzed using a Cyan flow cytometer (Dako). Cells were blocked with species-specific serum for 30 min followed by blocking with CD16/32 (eBiosciences) for a further 15 min then, with specific antibodies shown in FIG. 81, Table 4. Immunofluorescence was performed on 4% paraformaldehyde-fixed cells in the presence of 10% donkey serum and 0.25% Triton X100 followed by visualization using 2.5% donkey serum in PBS with fluorescent conjugated secondary antibodies. DAPI (Sigma) was used to counterstain nuclei. […]

Molecule: CC1=C(/C=C/C(C)=C/C=C/C(C)=C/C(=O)O)C(C)(C)CCC1 [RA, All-trans retinoic acid, reference compound]
treated cells expressing Wt1, Raldh2 and Tbx20 (Isl1+ IMP (Spl-m) cells; RA 4 μM with Wnt3a and BMP4, immunofluorescence): More than 90% | Erk activation in Isl1+ Spl-m (Isl1+ IMP (Spl-m) cells): activated Erk

migration of C56C cells towards SDF1 (CXCR4 receptor; antagonist added): blocked
Molecule: c1cc(CN2CCCNCCNCCCNCC2)ccc1CN1CCCNCCNCCCNCC1 [AMD3100]

Molecule: VEGF
cells positive for CD31 and VE-cadherin (endothelial cells) [1]: 10-20% | cells positive for SMA and calponin (smooth muscle cells) [1]: 80-90%

Molecule: Fgf2: fibroblast growth factor 2
transcripts expressed in PE/epicardium (Wt1, Raldh2, Tbx18, Tbx5) (Isl1+ IMP (Spl-m) cells; Fgf2 100 ng/ml after 4 days of Wnt/BMP): dramatic increases | Erk activation in Isl1+ Spl-m (Isl1+ IMP (Spl-m) cells): activated Erk

migration of C56C cells towards cytokine in lower chamber (CXCR4 receptor; 300,000 C56C cells in upper chamber): responsive and migrate towards
Molecule: SDF1: SDF1 cytokine

B1: BMP4: bone morphogenic protein 4 (protein, UniProt P12644 293-408, looked up)
Bone morphogenetic protein 4: SPKHHSQRARKKNKNCRRHSLYVDFSDVGWNDWIVAPPGYQAFYCHGDCPFPLADHLNSTNHAIVQTLVNSVNSSIPKACCVPTELSAISMLYLDEYDKVVLKNYQEMVVEGCGCR
differentiation / gene expression changes with single factor alone (WA09 hESCs): promoted differentiation

B2: Wnt3a: wingless (Wnt) protein (protein, UniProt P56704 19-352, looked up)
Protein Wnt-3a: SYPIWWSLAVGPQYSSLGSQPILCASIPGLVPKQLRFCRNYVEIMPSVAEGIKIGIQECQHQFRGRRWNCTTVHDSLAIFGPVLDKATRESAFVHAIASAGVAFAVTRSCAEGTAAICGCSSRHQGSPGKGWKWGGCSEDIEFGGMVSREFADARENRPDARSAMNRHNNEAGRQAIASHMHLKCKCHGLSGSCEVKTCWWSQPDFRAIGDFLKDKYDSASEMVVEKHRESRGWVETLRPRYTYFKVPTERDLVYYEASPNFCEPNPETGSFGTRDRTCNVSSHGIDGCDLLCCGRGHNARAERRREKCRCVFHWCCYVSCQECTRVYDVHTCK
differentiation / gene expression changes with single factor alone (WA09 hESCs): None of the gene expression changes

B3: Dkk1: Wnt antagonist Dkk1 (protein, UniProt O94907 32-266, looked up)
Dickkopf-related protein 1: TLNSVLNSNAIKNLPPPLGGAAGHPGSAVSAAPGILYPGGNKYQTIDNYQPYPCAEDEECGTDEYCASPTRGGDAGVQICLACRKRRKRCMRHAMCCPGNYCKNGICVSSDQNHFRGEIEETITESFGNDHSTLDGYSRRTTLSSKMYHTKGQEGSVCLRSSDCASGLCCARHFWSKICKPVLKEGQVCTKHRRKGSHGLEIFQRCYCGEGLSCRIQKDHHQASNSSRLHTCQRH
BMP4-dependent differentiation of hESCs without exogenous Wnt3a (WA09 hESCs; Dkk1 150 ng/ml with BMP4 50 ng/ml): blocked
